Test results taken from patent publication EP0036357A1, “Antalgic and antiagregant cetonic derivatives of 5,6-diaryl-1,2,4-triazines, usable in the treatment of migraine” (PIERRE FABRE S.A., priority 1980, dated 1981).
Where two headings read alike, the source gives them in different places.

Key:
[1] = Acute toxicity (LD50) in mice, Miller and Tainter method; conditions: in vivo, mouse about 20 g
Text: L'étude de la toxicité a été effectuée chez la souris conventionnelle pesant environ 20 grammes.
Les substances ont été administrées par voie orale et intrapéritonéale. Les doses létales 50 sont exprimées en mg/kg et ont été calculées selon la méthode de MILLER et TAINTER, Proc. Soc. Exper. Biol. Med. 1944, 57, 261.
A titre d'exemple dans le tableau ci-dessous figurent quelques valeurs de doses toxiques provoquant 50 % de mortalité.

[2] = Qualitative solubility in solvents; assay type: physicochemical; conditions: for Insoluble dans: solvents in which the compound is insoluble; for Soluble dans: solvents in which the compound is soluble
[3] = Tolerance on repeated administration; assay type: in vivo
[4] = system: contorsions à la phényl benzoquinone; test: Phenylbenzoquinone writhing test (Siegmund), analgesic activity; assay type: in vivo, souris; conditions: po, 0.5 h; dose giving 50 % decrease of writhes; per os, mouse, 30 minutes before i.p. phenylbenzoquinone; read-out: DE50 (the source's name)
Procedure: L'activité sur le test des contorsions à la phényl benzoquinone (selon SIEGMUND et Coll. - J. Pharm. Exptl. Ther. 1957, 119, 453) […] administration du produit per os; la dose est exprimée en mg/kg chez la souris 30 minutes avant l'injection […] sont exprimés en pourcentage de variation du nombre de contorsions; pour les molécules les plus actives, nous avons déterminé la dose qui provoque 50 % de diminution des contorsions DE50. Dans le tableau ci-dessous nous avons répertorié les molécules dont l'activité est supérieure ou é[…] (DE50 ≃ 40).

[5] = ip, intraperitoneal route, read-out: DL50 voie I.P.
[6] = oral route, read-out: DL50 voie orale

SMILES	LD50 [1, 5]	LD50 [1, 6]	Insoluble dans [2]	Soluble dans [2]	tolérées par administration répétée [3]	ED50 [4]
COc1ccc(-c2nc(=O)n(CC(=O)c3ccc(Br)cc3)nc2-c2ccc(OC)cc2)cc1 [ST 844, Oxo-3 (p-bromophénacyl)-2 di(paraméthoxyphényl) 5-6 as triazine]	~800 mg/kg	> 2000 mg/kg	l'eau, les acides et bases dilués	l'éthanol, le benzène, le chlorure de méthylène, le chloroforme		
COc1ccc(-c2nc(=O)n(C(C)C(C)=O)nc2-c2ccc(OC)cc2)cc1 (stereo not drawn) [ST 765, Oxo-3 α méthylacétonyl-2 di (paraméthoxyphényl) 5-6 as triazine]	> 1000 mg/kg	> 2000 mg/kg	l'eau, les acides et bases dilués, et l'éther	l'éthanol, le benzène, le chlorure de méthylène et le chloroforme	les mieux tolérées	10 mg/kg
COc1ccc(-c2nc(=O)n(CC(=O)c3ccc(O)c(O)c3)nc2-c2ccc(OC)cc2)cc1 [ST 827, Oxo-3 (3,4 dihydroxyphénacyl)-2 di(paraméthoxyphényl) 5-6 as triazine]		> 1000 mg/kg	l'eau, les acides dilués, le benzène, le chlorure de méthylène et l'éther	les bases diluées et l'éthanol		
CN(C)c1ccc(-c2nc(=O)n(CC(=O)c3ccccc3)nc2-c2ccc(N(C)C)cc2)cc1 [ST 813, Oxo-3 acétophényl-2 di (paradiméthylaminophényl) 5-6 as triazine]	~750 mg/kg	> 1000 mg/kg	l'eau, les bases diluées, le benzène, l'éthanol et l'éther	les acides dilués aqueux, le chlorure de méthylène et le chloroforme		
COc1ccc(-c2nc(=O)n(CC(C)=O)nc2-c2ccc(OC)cc2)cc1 [ST 753, Oxo-3 acétonyl-2 di(paraméthoxyphényl) 5-6 as triazine]	> 500 mg/kg	> 1500 mg/kg	l'eau, les acides et bases dilués, l'éther	l'éthanol, le benzène, le chlorure de méthylène et le chloroforme	les mieux tolérées	15 mg/kg
CC(=O)C(C)n1nc(-c2ccc(N(C)C)cc2)c(-c2ccc(N(C)C)cc2)nc1=O (stereo not shown) [ST 802, Oxo-3αméthylacétonyl-2 di(paradiméthylaminophényl) 5-6 as triazine]		> 1500 mg/kg	l'eau, les bases diluées et l'éther	les acides dilués aqueux, l'éthanol, le benzène, le chlorure de méthylène et le chloroforme		5 mg/kg
O=C(OCC(O)CO)c1ccccc1Nc1ccnc2cc(Cl)ccc12 (stereo not shown) [glafénine, reference compound]						~40 mg/kg
CCC(=O)CCn1nc(-c2ccc(OC)cc2)c(-c2ccc(OC)cc2)nc1=O [ST 966, Oxo-3 (δ diéthylcétone)-2 di(paraméthoxyphényl)-5, 6 as triazine]		> 2000 mg/kg	l'eau, les bases et les acides dilués et l'éther	l'éthanol, le benzène, le chlorure de méthylène et le chloroforme		
CCC(=O)CCn1nc(-c2ccc(N(C)C)cc2)c(-c2ccc(N(C)C)cc2)nc1=O [ST 925, Oxo-3 ( δ diéthylcétone)-2 di(paradiméthyaminophényl) 5, 6 as triazine]	> 500 mg/kg	> 1000 mg/kg	l'eau, les bases diluées et l'éther	les acides dilués, l'éthanol, le benzène, le chlorure de méthylène et le chloroforme		5 mg/kg
CC(=O)Cn1nc(-c2ccc(N(C)C)cc2)c(-c2ccc(N(C)C)cc2)nc1=O [ST 910, Oxo-3 acétonyl-2 di(paradiméthylaminophényl) 5-6 as triazine]		> 1500 mg/kg	l'eau et les bases diluées, le benzène et l'éther	les acides dilués, l'éthanol, le chlorure de méthylène et le chloroforme		4 mg/kg
CN(C)c1ccc(-c2nc(=O)n(CC(=O)c3ccc(O)c(O)c3)nc2-c2ccc(N(C)C)cc2)cc1 [ST 842, Oxo-3 (3,4 dihydroxyphénacyl)-2 di(paradiméthylaminophényl) 5-6 as triazine]		> 1000 mg/kg	l'eau, le benzène, le chlorure de méthylène, l'éther	les acides et les basés dilués et l'éthanol		
COc1ccc(-c2nc(=O)n(C(C(=O)c3ccccc3)c3ccccc3)nc2-c2ccc(OC)cc2)cc1 (stereo not drawn) [ST 908, Oxo-3 (α phénylacétophénone)-2 di (paraméthoxyphényl)-5-6 as triazine]	> 500 mg/kg	> 1000 mg/kg	l'eau, les acides et les bases dilués	l'éthanol, le chlorure de méthylène, le chloroforme et l'éther		
CC(=O)CCCn1nc(-c2ccc(N(C)C)cc2)c(-c2ccc(N(C)C)cc2)nc1=O [ST 924, Oxo-3 (δ propylméthylcétone)-2 di(p-diméthylaminophényl)-5-6 as triazine]		> 1500 mg/kg				7 mg/kg
CN(C)c1ccc(-c2nc(=O)n(C(C(=O)c3ccccc3)c3ccccc3)nc2-c2ccc(N(C)C)cc2)cc1 (stereo not drawn) [ST 911, Oxo-3 (α phénylacétophénone)-2 di(paradiméthylaminophényl) 5-6 as triazine]		> 1000 mg/kg	l'eau, les bases diluées, l'éthanol et l'éther	les acides dilués, le benzène, le chlorure de méthylène et le chloroforme		
